Where two headings read alike, the source gives them in different places.
How the values were obtained:
KRAS G12D = KRAS G12D (Homo sapiens, UniProt P01116, G12D); test: In-vitro RAS-RAF binding assay (RRB), HTRF/FRET; type: biochemical; parameters: Biotinylated KRAS protein amino acids 1-169 (produced at Erasca); made in house; conditions: read-out: Inhibition of RAS-RAF Binding (in-vitro) KRAS (G12D) IC50
Outline: (§1)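 Compounds preincubated with terbium-labelled biotinylated KRAS (aa 1-169, 30 nM) before 60 min SOS1-catalysed exchange to GTPgS. Binding of the d2-labelled cRAF RBD (30 nM) is read as FRET at equilibrium in duplicate. Buffer: 50 mM HEPES pH 7.5, 100 mM NaCl, 1 mM MgCl2, 1 mM DTT.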

KRAS (WT) = target: T1, KRAS (WT) (Homo sapiens, UniProt P01116); test: In-vitro RAS-RAF binding assay (RRB), HTRF/FRET; type: biochemical; conditions: read-out: Inhibition of RAS-RAF Binding (in-vitro) KRAS (WT) IC50
T1 construct: Biotinylated KRAS protein amino acids 1-169 (produced at Erasca); made in house
T1 sequence (P01116 1-169 isoform P01116-2): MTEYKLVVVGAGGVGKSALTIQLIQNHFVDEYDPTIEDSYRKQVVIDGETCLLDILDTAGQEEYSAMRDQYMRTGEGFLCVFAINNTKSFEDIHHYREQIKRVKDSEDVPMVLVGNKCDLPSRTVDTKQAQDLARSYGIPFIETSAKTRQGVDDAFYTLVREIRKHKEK
Outline: as §1

[1] = Table 2, average of multiple runs of each compound

Chain of KRAS G12D (P01116 1-169 isoform P01116-2 G12D): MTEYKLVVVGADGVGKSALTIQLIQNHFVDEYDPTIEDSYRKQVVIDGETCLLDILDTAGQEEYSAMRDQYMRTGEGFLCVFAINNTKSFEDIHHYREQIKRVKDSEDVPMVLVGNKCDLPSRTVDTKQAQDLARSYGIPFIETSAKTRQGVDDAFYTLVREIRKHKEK

Row | SMILES | IC50 (KRAS G12D; [1]) | IC50 (KRAS (WT); [1]) | IC50 (KRAS G12D; Table 1) | IC50 (KRAS (WT); Table 1)
1 | C#Cc1c(F)ccc2cc(O)cc(-c3ncc4c(N5CC6CCC(C5)N6)nc(OC[C@@H]5CCCN5CCCC5CCC(=O)N5[C@H](C(=O)N5C[C@H](O)C[C@H]5C(=O)N[C@@H](C)c5ccc(-c6scnc6C)cc5)C(C)(C)C)nc4c3F)c12 (stereo partly drawn) [Example 10, (2S,4R)-1-((2S)-2-(2-(3-((2S)-2-(((4-(3,8-diazabicyclo[3.2.1]octan-3-yl)-7-(8-ethynyl-7-fluoro-3-hydroxynaphthalen-1-yl)-8-fluoropyrido[4,3-d]pyrimidin-2-yl)oxy)methyl)pyrrolidin-1-yl)propyl)-5-oxopyrrolidin-1-yl)-3,3-dimethylbutanoyl)-4-hydroxy-N—((S)-1-(4-(4-methylthiazol-5-yl)phenyl)ethyl)pyrrolidine-2-carboxamide] | 12.7 nM | 134 nM |  | 
2 | C#Cc1c(F)ccc2cc(O)cc(-c3ncc4c(N5CC6CCC(C5)N6)nc(OCCN5CCC(F)(COc6cc([C@H](C(=O)N7C[C@H](O)C[C@H]7C(=O)N[C@@H](C)c7ccc(-c8c(F)cc(F)cc8F)cc7)C(C)C)on6)CC5)nc4c3F)c12 [Example 65, (2S,4R)-1-((2R)-2-(3-((1-(2-((4-(3,8-diazabicyclo[3.2.1]octan-3-yl)-7-(8-ethynyl-7-fluoro-3-hydroxynaphthalen-1-yl)-8-fluoropyrido[4,3-d]pyrimidin-2-yl)oxy)ethyl)-4-fluoropiperidin-4-yl)methoxy)isoxazol-5-yl)-3-methylbutanoyl)-4-hydroxy-N-((S)-1-(2′,4′,6′-trifluoro-[1,1′-biphenyl]-4-yl)ethyl)pyrrolidine-2-carboxamide] | 11.1 nM | > 10000 nM |  | 
3 | Cc1ncsc1-c1ccc([C@H](C)NC(=O)[C@@H]2C[C@@H](O)CN2C(=O)[C@@H](NC(=O)CCCCN2CC[C@H]2COc2nc(N3CC4CCC(C3)N4)c3cc(Cl)c(-c4ccc(F)c5sc(N)c(C#N)c45)c(F)c3n2)C(C)(C)C)cc1 [Example 23, (2S,4R)-1-((2S)-2-(5-((2S)-2-(((7-(2-amino-3-cyano-7-fluorobenzo[b]thiophen-4-yl)-4-(3,8-diazabicyclo[3.2.1]octan-3-yl)-6-chloro-8-fluoroquinazolin-2-yl)oxy)methyl)azetidin-1-yl)pentanamido)-3,3-dimethylbutanoyl)-4-hydroxy-N—((S)-1-(4-(4-methylthiazol-5-yl)phenyl)ethyl)pyrrolidine-2-carboxamide] | 12.6 nM | 65 nM |  | 
4 | C#Cc1c(F)ccc2cc(O)cc(-c3ncc4c(N5CC6CCC(C5)N6)nc(OC[C@@H]5CCCN5CCCOCCC(=O)N[C@H](C(=O)N5C[C@H](O)C[C@H]5C(=O)N[C@@H](C)c5ccc(-c6ccncc6C#N)cc5)C(C)(C)C)nc4c3F)c12 [Example 28, (2S,4R)-1-((2S)-2-(3-(3-((2S)-2-(((4-(3,8-diazabicyclo[3.2.1]octan-3-yl)-7-(8-ethynyl-7-fluoro-3-hydroxynaphthalen-1-yl)-8-fluoropyrido[4,3-d]pyrimidin-2-yl)oxy)methyl)pyrrolidin-1-yl)propoxy)propanamido)-3,3-dimethylbutanoyl)-N—((S)-1-(4-(3-cyanopyridin-4-yl)phenyl)ethyl)-4-hydroxypyrrolidine-2-carboxamide] | 7.93 nM | 24.2 nM |  | 
5 | C#Cc1c(F)ccc2cc(O)cc(-c3ncc4c(N5CC6CCC(C5)N6)nc(OC[C@@H]5CCCN5CCCOCCC(=O)N[C@H](C(=O)N5C[C@H](O)C[C@H]5C(=O)N[C@@H](C)c5ccc(-c6c(Cl)ccc(Cl)c6Cl)cc5)C(C)(C)C)nc4c3F)c12 [Example 57, (2S,4R)-1-((2S)-2-(3-(3-((2S)-2-(((4-(3,8-diazabicyclo[3.2.1]octan-3-yl)-7-(8-ethynyl-7-fluoro-3-hydroxynaphthalen-1-yl)-8-fluoropyrido[4,3-d]pyrimidin-2-yl)oxy)methyl)pyrrolidin-1-yl)propoxy)propanamido)-3,3-dimethylbutanoyl)-4-hydroxy-N-((S)-1-(2′,3′,6′-trichloro-[1,1′-biphenyl]-4-yl)ethyl)pyrrolidine-2-carboxamide] | 13.1 nM | 118 nM |  | 
6 | Cc1cc(N)nc(-c2c(Cl)cc3c(N4CC5CCC(C4)N5)nc(OC[C@@H]4CCCN4CCCCCCCN4CCC(c5cc(F)cc6c5CN(C5CCC(=O)NC5=O)C6=O)CC4)nc3c2F)c1C(F)(F)F (stereo partly drawn) [Example 5, 3-[4-[1-[7-[(2S)-2-[[7-[6-amino-4-methyl-3-(trifluoromethyl)-2-pyridyl]-6-chloro-4-(3,8-diazabicyclo[3.2.1]octan-3-yl)-8-fluoro-quinazolin-2-yl]oxymethyl]pyrrolidin-1-yl]heptyl]-4-piperidyl]-6-fluoro-1-oxo-isoindolin-2-yl]piperidine-2,6-dione] | 18.8 nM | 4920 nM | 19 nM | 2440 nM
7 | C#Cc1c(F)ccc2cc(O)cc(-c3ncc4c(N5CC6CCC(C5)N6)nc(OC[C@@H]5CCCN5CCCOCCC(=O)N[C@H](C(=O)N5C[C@H](O)C[C@H]5C(=O)N[C@@H](C)c5ccc(-c6c(F)c(F)c(F)c(F)c6F)cc5)C(C)(C)C)nc4c3F)c12 [Example 59, (2S,4R)-1-((2S)-2-(3-(3-((2S)-2-(((4-(3,8-diazabicyclo[3.2.1]octan-3-yl)-7-(8-ethynyl-7-fluoro-3-hydroxynaphthalen-1-yl)-8-fluoropyrido[4,3-d]pyrimidin-2-yl)oxy)methyl)pyrrolidin-1-yl)propoxy)propanamido)-3,3-dimethylbutanoyl)-4-hydroxy-N-((S)-1-(2′,3′,4′,5′,6′-pentafluoro-[1,1′-biphenyl]-4-yl)ethyl)pyrrolidine-2-carboxamide] | 7.52 nM | 73.1 nM |  | 
8 | Cc1ncsc1-c1ccc([C@H](C)NC(=O)[C@@H]2C[C@@H](O)CN2C(=O)[C@@H](NC(=O)CCCCN2CCC[C@H]2COc2nc(N3CC4CCC(C3)N4)c3cc(Cl)c(-c4ccc(F)c5sc(N)c(C#N)c45)c(F)c3n2)C(C)(C)C)cc1 [Example 84, (2S,4R)-1-((2S)-2-(5-((2S)-2-(((7-(2-amino-3-cyano-7-fluorobenzo[b]thiophen-4-yl)-4-(3,8-diazabicyclo[3.2.1]octan-3-yl)-6-chloro-8-fluoroquinazolin-2-yl)oxy)methyl)pyrrolidin-1-yl)pentanamido)-3,3-dimethylbutanoyl)-4-hydroxy-N-((S)-1-(4-(4-methylthiazol-5-yl)phenyl)ethyl)pyrrolidine-2-carboxamide] | 12.8 nM | 69 nM |  | 
9 | C#Cc1c(F)ccc2cc(O)cc(-c3ncc4c(N5CC6CCC(C5)N6)nc(OC[C@@H]5CCCN5CCCOCCC(=O)N[C@H](C(=O)N5C[C@H](O)C[C@H]5C(=O)N[C@@H](C)c5ccc(-c6c(C)ccnc6C)cc5)C(C)(C)C)nc4c3F)c12 [Example 47, (2S,4R)-1-((2S)-2-(3-(3-((2S)-2-(((4-(3,8-diazabicyclo[3.2.1]octan-3-yl)-7-(8-ethynyl-7-fluoro-3-hydroxynaphthalen-1-yl)-8-fluoropyrido[4,3-d]pyrimidin-2-yl)oxy)methyl)pyrrolidin-1-yl)propoxy)propanamido)-3,3-dimethylbutanoyl)-N-((S)-1-(4-(2,4-dimethylpyridin-3-yl)phenyl)ethyl)-4-hydroxypyrrolidine-2-carboxamide] | 7.67 nM | 22.2 nM |  | 
10 | C#Cc1c(F)ccc2cc(O)cc(-c3ncc4c(N5CC6CCC(C5)N6)nc(OC[C@@H]5CCCN5CCCOCCC(=O)N[C@H](C(=O)N5C[C@H](O)C[C@H]5C(=O)N[C@@H](C)c5ccc(-c6ccccc6C#N)cc5)C(C)(C)C)nc4c3F)c12 [Example 40, (2S,4R)-1-((2S)-2-(3-(3-((2S)-2-(((4-(3,8-diazabicyclo[3.2.1]octan-3-yl)-7-(8-ethynyl-7-fluoro-3-hydroxynaphthalen-1-yl)-8-fluoropyrido[4,3-d]pyrimidin-2-yl)oxy)methyl)pyrrolidin-1-yl)propoxy)propanamido)-3,3-dimethylbutanoyl)-N-((S)-1-(2′-cyano-[1,1′-biphenyl]-4-yl)ethyl)-4-hydroxypyrrolidine-2-carboxamide] | 8.88 nM | 26.5 nM |  | 
